Key:
Staphylococcus aureus [1] = assay: (§1) Maximal inhibition of the aminoglycoside on Staphylococcus aureus IF-2 binding to fMet-tRNA(fMet)
Staphylococcus aureus [2] = assay: (§2) Denaturation rate constant of IF2 in the presence of aminoglycoside
[3] = (§3) Inhibitory activity against the displacement of Picogreen from fMet-tRNA(fMet) by the aminoglycoside; design: species or system Staphylococcus aureus
[4] = Inhibitory activity of the aminoglycoside on Staphylococcus aureus IF-2 binding to fMet-tRNA(fMet)
Staphylococcus aureus [5] = assay: (§4) Maximal inhibition against the displacement of Picogreen from fMet-tRNA(fMet) by the aminoglycoside
Staphylococcus aureus [6] = assay: as §2; format: functional
Staphylococcus aureus [7] = assay: as §3; format: functional
Staphylococcus aureus [8] = assay: Inhibitory activity of the aminoglycoside on Staphylococcus aureus IF-2 binding to fMet-tRNA (fMet); format: functional
Staphylococcus aureus [9] = assay: as §4; format: functional
Staphylococcus aureus [10] = assay: as §1; format: functional

Row | Structure (SMILES) | inhibition (Staphylococcus aureus [1]) | Denaturation rate constant (Staphylococcus aureus [2]) | IC50 [3] | IC50 [4] | inhibition (Staphylococcus aureus [5]) | Denaturation rate constant (Staphylococcus aureus [6]) | IC50 (Staphylococcus aureus [7]) | IC50 (Staphylococcus aureus [8]) | inhibition (Staphylococcus aureus [9]) | Inhibition (Staphylococcus aureus [10])
1 | NCC[C@H](O)C(=O)N[C@@H]1C[C@H](N)[C@@H](O[C@H]2O[C@H](CN)[C@@H](O)[C@H](O)[C@H]2O)[C@H](O)[C@H]1O[C@H]1O[C@H](CO)[C@@H](O)[C@H](N)[C@H]1O [AMIKACIN] | 43% | 0.093 min⁻¹ | 160 nM | 1020 nM | 85% | – | – | – | – | –
2 | NC[C@@H]1O[C@H](O[C@H]2[C@@H](O)[C@H](O[C@@H]3[C@@H](O)[C@H](N)C[C@H](N)[C@H]3O[C@H]3O[C@H](CN)[C@@H](O)[C@H](O)[C@H]3N)O[C@@H]2CO)[C@H](N)[C@@H](O)[C@@H]1O [FRAMYCETIN] | 76% | 0.095 min⁻¹ | 9 nM | 50 nM | 100% | – | – | – | – | –
3 | CNC1C(O)C(OC2C(N)CC(N)C(OC3OC(CN)CCC3N)C2O)OCC1(C)O (configuration not stated) [GENTAMICIN C1A] | 66% | – | – | 450 nM | – | – | – | – | – | –
4 | CN[C@@H]1C[C@H](N)[C@@H](O)[C@H](O[C@H]2O[C@H](CO)[C@H](O)[C@@H]3O[C@@]4(O[C@@H]23)O[C@H]([C@H](N)CO)[C@H](O)[C@H](O)[C@H]4O)[C@H]1O [HYGROMYCIN] | 84% | 0.096 min⁻¹ | 278 nM | 66000 nM | 81% | – | – | – | – | –
5 | NC[C@@H]1O[C@@H](O[C@H]2[C@H](O)[C@@H](O[C@H]3O[C@H](CO)[C@@H](O)[C@H](N)[C@H]3O)[C@H](N)C[C@@H]2N)[C@@H](O)[C@H](O)[C@H]1O [KANAMYCIN A] | 61% | 0.092 min⁻¹ | 24 nM | 17800 nM | 92% | – | – | – | – | –
6 | CN[C@@H]1[C@@H](O)[C@@H](O[C@@H]2[C@@H](O)[C@H](O[C@H]3OC(CN)=CC[C@H]3N)[C@@H](N)C[C@H]2N)OC[C@]1(C)O [SISOMICIN] | – | – | – | – | – | 0.087 min⁻¹ | 7 nM | 7 nM | 100% | 75%
7 | CN[C@@H]1[C@H](O[C@H]2[C@H](O[C@H]3[C@H](O)[C@@H](O)[C@H](N=C(N)N)[C@@H](O)[C@@H]3N=C(N)N)O[C@@H](C)[C@]2(O)C=O)O[C@@H](CO)[C@H](O)[C@H]1O [STREPTOMYCIN] | 43% | 0.094 min⁻¹ | 1790 nM | 1490 nM | 95% | – | – | – | – | –

From ChEMBL document CHEMBL1145741, “Inhibition of bacterial IF2 binding to fMet-tRNA((fMet)) by aminoglycosides” (Bioorg Med Chem Lett, 2003)
